Data: PubChem BioAssay AID248 (DTP/NCI, 2004)
Inconclusive results and toxic doses are left out. Cut-off read from the data, not from the text of the source: active = T/C of 150% or more; inactive = T/C below 125%.

Tested on: L1210 leukemia ip in BDF1 mice, survival T/C
Test: NCI In Vivo Anticancer Drug Screen. Data for tumor model L1210 Leukemia (intraperitoneal) in B6D2F1 (BDF1) mice
Conditions: endpoint: mean survival time, higher = longer survival
Procedure, shortened: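 Transplantable tumor model; survival measured in treated vs vehicle control mice. Value = treated/control.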

[1] = dose: 50.0 mg/kg/injection, schedule: Q01DX001 (ip), vehicle: saline
[2] = dose: 100.0 mg/kg/injection, schedule: Q01DX001 (ip), vehicle: saline
[3] = dose: 200.0 mg/kg/injection, schedule: Q01DX001 (ip), vehicle: saline
[4] = dose: 400.0 mg/kg/injection, schedule: Q01DX001 (ip), vehicle: saline
[5] = dose: 100.0 mg/kg/injection, schedule: Q04DX003 (ip), vehicle: saline
[6] = dose: 100.0 mg/kg/injection, schedule: Q01DX009 (ip), vehicle: Klucel (hydroxypropylcellulose) (HPC)
[7] = dose: 200.0 mg/kg/injection, schedule: Q01DX009 (ip), vehicle: Klucel (hydroxypropylcellulose) (HPC)
[8] = dose: 12.5 mg/kg/injection, schedule: Q01DX009 (ip), vehicle: Klucel (hydroxypropylcellulose) (HPC)
[9] = dose: 25.0 mg/kg/injection, schedule: Q01DX009 (ip), vehicle: Klucel (hydroxypropylcellulose) (HPC)
[10] = dose: 25.0 mg/kg/injection, schedule: Q01DX009 (ip), vehicle: saline with Tween-80
[11] = dose: 50.0 mg/kg/injection, schedule: Q01DX009 (ip), vehicle: saline with Tween-80
[12] = dose: 100.0 mg/kg/injection, schedule: Q04DX003 (ip), vehicle: saline with Tween-80

Measured: T/C

CS(=O)(=O)n1c(CCl)nc2ccccc21
inactive: [1] 96 % of control | [2] 104 % of control | [3] 102 % of control | [4] 102 % of control

CCNC(=O)N1CC2CCC(C1)N2C
inactive: [5] 113 % of control | dose: 200.0 mg/kg/injection, schedule: Q04DX003 (ip), vehicle: saline 106 % of control | dose: 400.0 mg/kg/injection, schedule: Q04DX003 (ip), vehicle: saline 98 % of control

c1ccc(-c2ccc([Si](c3ccccc3)(c3ccccc3)c3ccc(-c4ccccc4)cc3)cc2)cc1
inactive: dose: 50.0 mg/kg/injection, schedule: Q01DX009 (ip), vehicle: Klucel (hydroxypropylcellulose) (HPC) 104 % of control | dose: 50.0 mg/kg/injection, schedule: Q04DX003 (ip), vehicle: Klucel (hydroxypropylcellulose) (HPC) 94 % of control | [6] 93 % of control | dose: 100.0 mg/kg/injection, schedule: Q04DX003 (ip), vehicle: Klucel (hydroxypropylcellulose) (HPC) 96 % of control | [7] 87 % of control | dose: 200.0 mg/kg/injection, schedule: Q04DX003 (ip), vehicle: Klucel (hydroxypropylcellulose) (HPC) 98 % of control

Cc1cc(N(CCOS(C)(=O)=O)CCOS(C)(=O)=O)ccc1C=Nc1ccc(-c2csc(Cc3ccccc3)n2)cc1
inactive: dose: 6.25 mg/kg/injection, schedule: Q01DX009 (ip), vehicle: Klucel (hydroxypropylcellulose) (HPC) 105 % of control | [8] 110 % of control | [9] 122 % of control

Cc1ccc(C)c(NS(C)(=O)=O)c1
inactive: [1] 96 % of control | [2] 91 % of control | [3] 102 % of control | [4] 102 % of control

COc1cc2ccc(CCN)cc2cc1OC
inactive: dose: 12.5 mg/kg/injection, schedule: Q01DX009 (ip), vehicle: saline with Tween-80 101 % of control | [10] 101 % of control | [11] 105 % of control

COc1cc(C)ccc1I
inactive: dose: 50.0 mg/kg/injection, schedule: Q01DX001 (ip), vehicle: saline with Tween-80 100 % of control | dose: 100.0 mg/kg/injection, schedule: Q01DX001 (ip), vehicle: saline with Tween-80 100 % of control | dose: 200.0 mg/kg/injection, schedule: Q01DX001 (ip), vehicle: saline with Tween-80 100 % of control

O=C(O)/C=C/c1cc(Br)sc1Br
inactive: [2] 96 % of control | [3] 107 % of control | [4] 88 % of control

CO[Si](OC)(OC)OC
inactive: [10] 92 % of control | dose: 25.0 mg/kg/injection, schedule: Q04DX003 (ip), vehicle: saline 94 % of control | [11] 92 % of control | dose: 50.0 mg/kg/injection, schedule: Q04DX003 (ip), vehicle: saline 108 % of control | [12] 101 % of control | [5] 103 % of control

COc1cc(OC)c(/C=C/c2ccc3ccccc3[n+]2C)c(OC)c1
inactive: dose: 0.5 mg/kg/injection, schedule: Q01DX009 (oral), vehicle: carboxymethylcellulose (CMC) 104 % of control | dose: 1.0 mg/kg/injection, schedule: Q01DX009 (oral), vehicle: carboxymethylcellulose (CMC) 103 % of control | dose: 2.0 mg/kg/injection, schedule: Q01DX009 (oral), vehicle: carboxymethylcellulose (CMC) 111 % of control | dose: 4.0 mg/kg/injection, schedule: Q01DX009 (oral), vehicle: carboxymethylcellulose (CMC) 103 % of control | dose: 8.0 mg/kg/injection, schedule: Q01DX009 (oral), vehicle: carboxymethylcellulose (CMC) 103 % of control | dose: 31.3 micrograms/kg/injection, schedule: Q04DX003 (ip), vehicle: saline 100 % of control | dose: 62.5 micrograms/kg/injection, schedule: Q04DX003 (ip), vehicle: saline 101 % of control | dose: 125.0 micrograms/kg/injection, schedule: Q04DX003 (ip), vehicle: saline 95 % of control

C=CCc1ccc2c(c1)OC(CO)CO2 (stereo not given) (tested in a mixture with another compound)
inactive: [2] 90 % of control | [3] 93 % of control | [4] 93 % of control

C[N+](C)(CC(=O)Nc1ccc(Oc2ccc(Cl)cc2)cc1)Cc1ccccc1
inactive: dose: 12.5 mg/kg/injection, schedule: Q01DX001 (ip), vehicle: Klucel (hydroxypropylcellulose) (HPC) 104 % of control | [8] 91 % of control | dose: 25.0 mg/kg/injection, schedule: Q01DX001 (ip), vehicle: Klucel (hydroxypropylcellulose) (HPC) 101 % of control | [9] 88 % of control | dose: 50.0 mg/kg/injection, schedule: Q01DX001 (ip), vehicle: Klucel (hydroxypropylcellulose) (HPC) 93 % of control

CC1CCCCN1P(N1CCCCC1C)N1CCCCC1C (stereo not given)
inactive: dose: 100.0 mg/kg/injection, schedule: Q04DX002 (ip), vehicle: saline with Tween-80 98 % of control | dose: 200.0 mg/kg/injection, schedule: Q04DX002 (ip), vehicle: saline with Tween-80 98 % of control

NC12C3(Cl)C4(Cl)C5(OCCO5)C5(Cl)C3(Cl)C1(Cl)C5(Cl)C24Cl (stereo not given)
inactive: [1] 102 % of control | [2] 102 % of control | [3] 90 % of control | [4] 102 % of control

Cn1/c(=N/N)sc2ccccc21.Cn1/c(=N/N)sc2ccccc21.Cn1/c(=N/N)sc2ccccc21.Cn1/c(=N\N)sc2ccccc21.[Cl][Rh][Cl]
inactive: dose: 3.13 mg/kg/injection, schedule: Q04DX003 (ip), vehicle: distilled water + Tween-80 100 % of control | dose: 6.25 mg/kg/injection, schedule: Q04DX003 (ip), vehicle: distilled water + Tween-80 98 % of control | dose: 12.5 mg/kg/injection, schedule: Q04DX003 (ip), vehicle: distilled water + Tween-80 101 % of control | dose: 25.0 mg/kg/injection, schedule: Q04DX003 (ip), vehicle: distilled water + Tween-80 101 % of control | dose: 50.0 mg/kg/injection, schedule: Q04DX003 (ip), vehicle: distilled water + Tween-80 93 % of control | dose: 100.0 mg/kg/injection, schedule: Q04DX003 (ip), vehicle: distilled water + Tween-80 90 % of control | dose: 200.0 mg/kg/injection, schedule: Q04DX003 (ip), vehicle: distilled water + Tween-80 95 % of control

COc1ccc(CC(=S)N2CCOCC2)cc1
inactive: [6] 104 % of control | dose: 100.0 mg/kg/injection, schedule: Q04DX002 (ip), vehicle: Klucel (hydroxypropylcellulose) (HPC) 98 % of control | [7] 102 % of control | dose: 200.0 mg/kg/injection, schedule: Q04DX002 (ip), vehicle: Klucel (hydroxypropylcellulose) (HPC) 95 % of control | dose: 400.0 mg/kg/injection, schedule: Q01DX009 (ip), vehicle: Klucel (hydroxypropylcellulose) (HPC) 96 % of control

CC1CCCCC12OCCO2 (stereo not given)
inactive: dose: 100.0 mg/kg/injection, schedule: Q01DX009 (ip), vehicle: saline with Tween-80 97 % of control | [12] 101 % of control | dose: 200.0 mg/kg/injection, schedule: Q01DX009 (ip), vehicle: saline with Tween-80 91 % of control | dose: 200.0 mg/kg/injection, schedule: Q04DX003 (ip), vehicle: saline with Tween-80 93 % of control | dose: 400.0 mg/kg/injection, schedule: Q04DX003 (ip), vehicle: saline with Tween-80 97 % of control

S=C([S-])N1CCOCC1.S=C([S-])N1CCOCC1.[Zn]
inactive: dose: 4.68 mg/kg/injection, schedule: Q01DX009 (ip), vehicle: saline 90 % of control | dose: 9.37 mg/kg/injection, schedule: Q01DX009 (ip), vehicle: saline 86 % of control | dose: 18.75 mg/kg/injection, schedule: Q01DX009 (ip), vehicle: saline 91 % of control | dose: 18.75 mg/kg/injection, schedule: Q04DX003 (ip), vehicle: saline 100 % of control | dose: 37.5 mg/kg/injection, schedule: Q04DX003 (ip), vehicle: saline 100 % of control | dose: 75.0 mg/kg/injection, schedule: Q01DX001 (ip), vehicle: saline 90 % of control
